Assay results taken from PMC3376652 (Journal of Medicinal Chemistry, 2012).
Read-outs that look alike come from different tables or passages of the source. Marks after values point to notes of the source that are not given here.

What was measured:
wild-type HIV-1YU2 virus [1] = format: cell-based; conditions: for IC50: read-out: HIV-1, YU-2 IC50, Table 2, Cf2Th-CD4/CCR5 cells, mean ± SD
[2] = biological target: T1, gp120 from the YU2 strain (Human immunodeficiency virus type 1 group M subtype B, UniProt P35961); test: Isothermal titration calorimetry of binding to full-length gp120; design: species or system HIV-1; conditions: for surface efficiency index (S.E.I.): calculated from KD and molecular polar surface area; for binding efficiency index (B.E.I.): calculated from KD and molecular weight; for change in heat capacity of binding: calculated from the temperature dependence of the binding enthalpies; for −TΔS: calculated from ΔG = ΔH – TΔS
[3] = system: recombinant HIV-1YU2 on Cf2Th-CCR5 cells; test: Activation of viral infectivity in CD4-negative Cf2Th-CCR5 cells; format: cell-based; conditions: for Activation of Viral Infectivity: Cf2Th-CCR5 cells
[4] = system: 17b binding to monomeric core and full-length gp120; test: SPR of 17b binding to small molecule:gp120 complexes; design: species or system HIV-1
S375Wgp120 YU2 virus = test: Viral inhibition of the Phe43 cavity filling mutant virus; format: cell-based, HIV-1
[5] = system: amphotropic murine leukemia virus (A-MLV); format: cell-based; conditions: for IC50: Murine leukemia virus, read-out: A-MLV IC50
[6] = system: 42 HIV-1 clade B and C isolates; test: Viral breadth: neutralization of HIV-1 Env-pseudoviruses in TZM-bl cells; format: cell-based; conditions: 42 HIV-1 strains (clades B and C); for neutralization breadth among the viral isolates tested: IC50 < 100 μM
Cf2Th-CD4-CCR5 cells = test: Luminescent cell-based viability assay; design: species or system canine; conditions: 1 to 100 μM, 48 hours
wild-type HIV-1YU2 virus [7] = conditions: read-out: HIV-1, YU-2 IC50; Cf2Th-CD4/CCR5 cells, 10,000 RT units; ref Schon et al.[49] and Madani et al.[44]; cited from earlier work
[8] = system: recombinant HIV-1YU2 on Cf2Th-CCR5 cells; conditions: relative to 1, ref Schon et al.[49] and Madani et al.[44]; cited from earlier work
[9] = biological target: T1, gp120 from the YU2 strain; conditions: ITC, 25 °C, ref Schon et al.[49] and Madani et al.[44], cited from earlier work
[10] = Table 2, calculated from KD, 25 °C

Row | SMILES | ΔH ([2]; Table 2, ITC, 25 °C) [kcal/mol] | ΔG [2, 10] [kcal/mol] | change in heat capacity of binding [2] | entry enhancement of YU2 viruses into CD4-negative, CCR5-expressing cells (in words) [3] | Activation of Viral Infectivity ([3]; Table 2, relative to 4) | effect on binding of 17b to gp120 [4] | inhibition of entry of A-MLV control virus (specificity, in words) [5] | percent of isolates with IC50 < 10 μM [6] [%] | Activation of Viral Infectivity [8] | ΔG [9] | ΔH [9] | also measured
1 | O=C(Nc1ccc(Cl)c(F)c1)C(=O)N[C@H]1c2ccccc2C[C@H]1O [(+)-9, N^1-(4-chloro-3-fluorophenyl)-N^2-[(1S,2R)-2-hydroxy-2,3-dihydro-1H-inden-1-yl]oxalamide] |  |  |  |  |  |  |  |  |  |  |  | inhibition of viral entry (in words, data not shown) (wild-type HIV-1YU2 virus [1]): weak inhibition of viral entry
2 | N=C(N)N[C@H]1Cc2ccccc2[C@@H]1NC(=O)C(=O)Nc1ccc(Cl)c(F)c1.O=CO [(+)-12, N^1-(4-chloro-3-fluorophenyl)-N^2-[(1S,2S)-2-guanidino-2,3-dihydro-1H-inden-1-yl]-oxalamide formate] | -14.9 | -9.0 | −398 ± 5 cal/(K × mol) | no appreciable entry enhancement | 0.1 ± 0.0 (19)^j (relative to 4) | enhance binding of 17b to both the monomeric core and full-length gp120 | neither compound was found to inhibit entry of A-MLV | 57 |  |  |  | surface efficiency index (S.E.I.) [2]: 6.4; binding efficiency index (B.E.I.) [2]: 16.8; IC50 (wild-type HIV-1YU2 virus [1]): 20 µM; sensitivity of YU2 S375Wgp120 virus to compound (S375Wgp120 YU2 virus): completely resistant; IC50 [5]: > 100 µM; neutralization breadth among the viral isolates tested [6]: 100%; in vitro cytotoxicity, inhibition of cell growth (Cf2Th-CD4-CCR5 cells): did not demonstrate measurable inhibition of cell growth
3 | CC1(C)CC(NC(=O)C(=O)Nc2ccc(Cl)cc2)CC(C)(C)N1 [Compound 1] |  |  |  |  |  |  |  | 12 | 1.0 | –7.4 kcal/mol | –24.5 kcal/mol | IC50 (wild-type HIV-1YU2 virus [7]): > 100 µM; −TΔS ([9]; listed as NBD-556 (1)): +17.1 kcal/mol
4 | CN1C(C)(C)CC(NC(=O)C(=O)Nc2ccc(Cl)c(F)c2)CC1(C)C [Compound 4] |  |  | −738 ± 36 cal/(K × mol) |  |  | enhance binding of 17b to both the monomeric core and full-length gp120 |  |  |  |  |  | ΔH ([2]; Table 1, ITC, 25 °C): –19.7 kcal/mol; ΔG ([2]; Table 1, calculated from Kd, 25 °C): –8.8 kcal/mol; −TΔS ([2]; Table 1): +10.9 kcal/mol; Activation of Viral Infectivity ([3]; Table 1, relative to 3): 2.1 (relative to 3)^i
5 | N=C(N)N[C@@H]1Cc2ccccc2[C@H]1NC(=O)C(=O)Nc1ccc(Cl)c(F)c1.O=CO [(−)-12] | -19.4 | -9.0 | −817 ± 15 cal/(K × mol) | no appreciable entry enhancement | 0.0 ± 0.0 (4)^j (relative to 4) | enhance binding of 17b to both the monomeric core and full-length gp120 | neither compound was found to inhibit entry of A-MLV | 52 |  |  |  | −TΔS ([2]; Table 2): +10.4 kcal/mol; surface efficiency index (S.E.I.) [2]: 6.4; binding efficiency index (B.E.I.) [2]: 16.8; IC50 (wild-type HIV-1YU2 virus [1]): 20 µM; sensitivity of YU2 S375Wgp120 virus to compound (S375Wgp120 YU2 virus): completely resistant; IC50 [5]: > 100 µM; neutralization breadth among the viral isolates tested [6]: 100%
6 | N[C@H]1Cc2ccccc2[C@@H]1NC(=O)C(=O)Nc1ccc(Cl)c(F)c1 [(+)-6, N^1-(4-chloro-3-fluorophenyl)-N^2-[(1S,2S)-2-amino-2,3-dihydro-1H-inden-1-yl]-oxalamide] | -15.4 | -7.9 |  | enhanced viral entry in CD4-negative cells at levels comparable to those previously measured for 1–4 | 1.4 ± 0.5 (relative to 4) | enhance binding of 17b to both the monomeric core and full-length gp120 | inhibiting entry of the A-MLV control virus with a similar IC50 value |  |  |  |  | 
7 | N[C@@H]1Cc2ccccc2[C@H]1NC(=O)C(=O)Nc1ccc(Cl)c(F)c1 [(−)-6] | -19.5 | -8.1 |  | enhanced viral entry in CD4-negative cells at levels comparable to those previously measured for 1–4 | 1.0 ± 0.3 (relative to 4) | enhance binding of 17b to both the monomeric core and full-length gp120 | inhibiting entry of the A-MLV control virus with a similar IC50 value |  |  |  |  | Kd ([2]; KD, Table 2, ITC, 25 °C, PBS pH 7.4, 2% DMSO): 1.2 µM; −TΔS ([2]; Table 2): +11.4 kcal/mol
8 | CC1(C)CC(NC(=O)C(=O)Nc2ccc(Br)cc2)CC(C)(C)N1 [Compound 2] |  |  |  |  |  |  |  |  | 0.8 (relative to 1) | –7.7 kcal/mol | –22.8 kcal/mol | IC50 (wild-type HIV-1YU2 virus [7]): > 100 µM; −TΔS ([9]; listed as NBD-557 (2)): +15.1 kcal/mol
9 | CC1(C)CC(NC(=O)C(=O)Nc2ccc(Cl)c(F)c2)CC(C)(C)N1 [Compound 3] |  |  |  |  |  |  |  |  | 1.9 (relative to 1) | –8.3 kcal/mol | –20.8 kcal/mol | −TΔS ([9]; listed as JRC-I-191 (3)): +12.5 kcal/mol
